Reference: patent US9487483B2, “Complement pathway modulators and uses thereof” (priority 2012, dated 2016)

Molecular target: Recombinant human factor D (Homo sapiens (Human), UniProt P00746)
Assay: biochemical
Type: biochemical
Conditions: Factor D inhibition data using Method 1; substrate Z-Lys-thiobenzyl, fluorescence readout; read-out: IC50
Method: Human Complement Factor D Assay: Method 1
Recombinant human factor D (expressed in E. coli and purified using standard methods) at 10 nM concentration is incubated with test compound at various concentrations for 1 hour at room temperature in 0.1 M Hepes buffer, pH 7.5, containing 1 mM MgCl2, 1 M NaCl and 0.05% CHAPS. […] IC50 values are calculated from percentage of inhibition of complement factor D-activity as a function of test compound concentration.

Sequence of Recombinant human factor D (P00746 26-253): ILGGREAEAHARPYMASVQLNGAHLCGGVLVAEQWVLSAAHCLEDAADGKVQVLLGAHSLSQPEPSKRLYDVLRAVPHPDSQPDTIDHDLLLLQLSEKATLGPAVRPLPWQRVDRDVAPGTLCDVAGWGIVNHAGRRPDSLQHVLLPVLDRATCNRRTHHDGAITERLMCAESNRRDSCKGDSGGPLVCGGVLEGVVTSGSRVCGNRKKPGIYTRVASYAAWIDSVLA

SMILES | IC50 [µM]
CC1(C)CCC[C@@H](NC(=O)[C@@H]2C[C@H]3C[C@H]3N2C(=O)Cn2nc(C(N)=O)c3ccc(F)cc32)C1 [Example 60, 1-{2-[(1R,3S,5R)-3-((R)-3,3-Dimethyl-cyclohexylcarbamoyl)-2-aza-bicyclo[3.1.0]hex-2-yl]-2-oxo-ethyl}-6-fluoro-1H-indazole-3-carboxylic acid amide] | 0.022
CC1(C)CCC[C@@H](NC(=O)[C@@H]2C[C@H]3C[C@H]3N2C(=O)Cn2nc(C(N)=O)c3ccc(Cl)cc32)C1 [Example 62, 6-Chloro-1-{2-[(1R,3S,5R)-3-((R)-3,3-dimethyl-cyclohexylcarbamoyl)-2-aza-bicyclo[3.1.0]hex-2-yl]-2-oxo-ethyl}-1H-indazole-3-carboxylic acid amide] | 0.024
Cc1cc2c(C(N)=O)nn(CC(=O)N3[C@@H]4C[C@@H]4C[C@H]3C(=O)N[C@@H]3CCCC(C)(C)C3)c2cn1 [Example 63, 1-{2-[(1R,3S,5R)-3-((R)-3,3-Dimethyl-cyclohexylcarbamoyl)-2-aza-bicyclo[3.1.0]hex-2-yl]-2-oxo-ethyl}-5-methyl-1H-pyrazolo[3,4-c] pyridine-3-carboxylic acid amide] | 0.049
CCc1cc2c(C(N)=O)nn(CC(=O)N3[C@@H]4C[C@@H]4C[C@H]3C(=O)N[C@@H]3CCCC(C)(C)C3)c2cn1 [Example 64, 1-{2-[(1R,3S,5R)-3-((R)-3,3-Dimethyl-cyclohexylcarbamoyl)-2-aza-bicyclo[3.1.0]hex-2-yl]-2-oxo-ethyl}-5-ethyl-1H-pyrazolo[3,4-c]pyridine-3-carboxylic acid amide] | 0.024
CC(=O)c1cn(CC(=O)N2[C@@H]3C[C@@H]3C[C@H]2C(=O)N[C@@H]2CCCC(C)(C)C2)c2nnccc12 [Example 66, (1R,3S,5R)-2-[2-(5-Acetyl-pyrrolo[2,3-c]pyridazin-7-yl)-acetyl]-2-aza-bicyclo[3.1.0] hexane-3-carboxylic acid ((R)-3,3-dimethyl-cyclohexyl)-amide] | 1.21
CO[C@@H]1CCC[C@@H](NC(=O)[C@@H]2C[C@H]3C[C@H]3N2C(=O)Cn2nc(C(C)=O)c3cc(OCc4ncccn4)ccc32)C1 [Example 69, (1R,3S,5R)-2-{2-[3-Acetyl-5-(pyrimidin-2-ylmethoxy)-indazol-1-yl]-acetyl}-2-aza-bicyclo [3.1.0]hexane-3-carboxylic acid ((1R,3R)-3-methoxy-cyclohexyl)-amide] | 0.143
CC[C@@H]1CCC[C@H](NC(=O)[C@@H]2C[C@H]3C[C@H]3N2C(=O)Cn2nc(C(N)=O)c3ccncc32)C1 [Example 72, 1-{2-[(1R,3S,5R)-3-((1S,3R)-3-Ethyl-cyclohexylcarbamoyl)-2-aza-bicyclo[3.1.0]hex-2-yl]-2-oxo-ethyl}-1H-pyrazolo[3,4-c]pyridine-3-carboxylic acid amide] | 1.7
CC[C@H]1CCC[C@@H](NC(=O)[C@@H]2C[C@H]3C[C@H]3N2C(=O)Cn2nc(C(N)=O)c3ccncc32)C1 [Example 73, 1-{2-[(1R,3S,5R)-3-((1R,3S)-3-ethyl-cyclohexylcarbamoyl)-2-aza-bicyclo[3.1.0]hex-2-yl]-2-oxo-ethyl}-1H-pyrazolo[3,4-c]pyridine-3-carboxylic acid amide] | 0.029
CC1(C)CCC[C@@H](NC(=O)[C@@H]2C[C@@H](F)CN2C(=O)Cn2nc(C(N)=O)c3ccccc32)C1 [Example 82, 1-{2-[(2S,4R)-2-((R)-3,3-Dimethyl-cyclohexylcarbamoyl)-4-fluoro-pyrrolidin-1-yl]-2-oxo-ethyl}-1H-indazole-3-carboxylic acid amide] | 0.038
CC[C@H]1CCC[C@@H](NC(=O)[C@@H]2C[C@H]3C[C@H]3N2C(=O)Cn2nc(C(N)=O)c3cc(C)ncc32)C1 [Example 83, 1-{2-[(1R,3S,5R)-3-((1R,3S)-3-Ethyl-cyclohexylcarbamoyl)-2-aza-bicyclo[3.1.0]hex-2-yl]-2-oxo-ethyl}-5-methyl-1H-pyrazolo[3,4-c]pyridine-3-carboxylic acid amide] | 0.05
CO[C@H]1[C@@H](C(=O)N[C@@H]2CCCC(C)(C)C2)N(C(=O)Cn2nc(C(N)=O)c3ccccc32)C[C@@H]1F [Example 84, 1-{2-[(2S,3S,4S)-2-((R)-3,3-Dimethyl-cyclohexylcarbamoyl)-4-fluoro-3-methoxy-pyrrolidin-1-yl]-2-oxo-ethyl}-1H-indazole-3-carboxylic acid amide] | 0.06
CO[C@H]1[C@@H](C(=O)N[C@H]2CCCC(C)(C)C2)N(C(=O)Cn2nc(C(N)=O)c3ccccc32)C[C@@H]1F [Example 85, 1-{2-[(2S,3S,4S)-2-((S)-3,3-Dimethyl-cyclohexylcarbamoyl)-4-fluoro-3-methoxy-pyrrolidin-1-yl]-2-oxo-ethyl}-1H-indazole-3-carboxylic acid amide] | 0.585
CC1(C)CCC[C@@H](NC(=O)[C@@H]2[C@@H]3C[C@@H]3CN2C(=O)Cn2nc(C(N)=O)c3ccncc32)C1 [Example 86, 1-{2-[(1R,2S,5S)-2-((R)-3,3-Dimethyl-cyclohexylcarbamoyl)-3-aza-bicyclo[3.1.0]hex-3-yl]-2-oxo-ethyl}-1H-pyrazolo[3,4-c]pyridine-3-carboxylic acid amide] | 0.058
CC1(C)CCC[C@H](NC(=O)[C@@H]2[C@@H]3C[C@@H]3CN2C(=O)Cn2nc(C(N)=O)c3ccncc32)C1 [Example 87, 1-{2-[(1R,2S,5S)-2-((S)-3,3-Dimethyl-cyclohexylcarbamoyl)-3-aza-bicyclo[3.1.0]hex-3-yl]-2-oxo-ethyl}-1H-pyrazolo[3,4-c]pyridine-3-carboxylic acid amide] | 6.62
CO[C@H]1CCC[C@@H](NC(=O)[C@@H]2C[C@H]3C[C@H]3N2C(=O)Cn2nc(C(C)=O)c3cc(OCc4ncccn4)ccc32)C1 [Example 94, (1R,3S,5R)-2-{2-[3-Acetyl-5-(pyrimidin-2-ylmethoxy)-indazol-1-yl]-acetyl}2-aza-bicyclo[3.1.0]hexane-3-carboxylic acid ((1R,3S)-3-methoxy-cyclohexyl)-amide] | 0.138
CC(=O)c1nn(CC(=O)N2[C@@H]3C[C@@H]3C[C@H]2C(=O)N[C@@H]2CCC[C@H](C(F)(F)F)C2)c2ccc(OCc3ncccn3)cc12 [Example 95, (1R,3S,5R)-2-{2-[3-Acetyl-5-(pyrimidin-2-ylmethoxy)-indazol-1-yl]-acetyl}-2-aza-bicyclo[3.1.0]hexane-3-carboxylic acid ((1R,3S)-3-trifluoromethyl-cyclohexyl)-amide] | 0.025
CC(=O)c1nn(CC(=O)N2[C@@H]3C[C@@H]3C[C@H]2C(=O)N[C@@H]2CCC[C@H](C)C2)c2ccc(OCc3ncccn3)cc12 [Example 96, (1R,3S,5R)-2-{2-[3-Acetyl-5-(pyrimidin-2-ylmethoxy)-indazol-1-yl]-acetyl}-2-aza-bicyclo[3.1.0]hexane-3-carboxylic acid ((1R,3S)-3-methyl-cyclohexyl)-amide] | 0.09

Same assay, conditions: read-out: IC50

SMILES | IC50 [µM]
Cc1nccc2c(C(N)=O)nn(CC(=O)N3[C@@H]4C[C@@H]4C[C@H]3C(=O)N[C@@H]3CCCC(C)(C)C3)c12 [Example 65, 1-{2-[(1R,3S,5R)-3-((R)-3,3-Dimethyl-cyclohexylcarbamoyl)-2-aza-bicyclo[3.1.0]hex-2-yl]-2-oxo-ethyl}-7-methyl-1H-pyrazolo[3,4-c]pyridine-3-carboxylic acid amide] | 0.038
CC1(C)CCC[C@H](NC(=O)[C@@H]2C[C@@H](F)CN2C(=O)Cn2nc(C(N)=O)c3ccncc32)C1 [Example 70, 1-{2-[(2S,4R)-2-((S)-3,3-Dimethyl-cyclohexylcarbamoyl)-4-fluoro-pyrrolidin-1-yl]-2-oxo-ethyl}-1H-pyrazolo[3,4-c]pyridine-3-carboxylic acid amide] | 2.09
CC1(C)CCC[C@@H](NC(=O)[C@@H]2C[C@@H](F)CN2C(=O)Cn2nc(C(N)=O)c3ccncc32)C1 [Example 71, 1-{2-[(2S,4R)-2-((R)-3,3-Dimethyl-cyclohexylcarbamoyl)-4-fluoro-pyrrolidin-1-yl]-2-oxo-ethyl}-1H-pyrazolo[3,4-c]pyridine-3-carboxylic acid amide] | 0.041
CC1=CC(NC(=O)[C@@H]2C[C@H]3C[C@H]3N2C(=O)Cn2nc(C(N)=O)c3ccccc32)CCC1 (stereo partly drawn) [Example 74, 1-{2-[(1R,3S,5R)-3-(3-Methyl-cyclohex-2-enylcarbamoyl)-2-aza-bicyclo[3.1.0]hex-2-yl]-2-oxo-ethyl}-1H-indazole-3-carboxylic acid amide] | 0.132
CCc1cc2c(C(N)=O)nn(CC(=O)N3C[C@H](F)C[C@H]3C(=O)N[C@@H]3CCCC(C)(C)C3)c2cn1 [Example 81, 1-{2-[(2S,4R)-2-((R)-3,3-Dimethyl-cyclohexylcarbamoyl)-4-fluoro-pyrrolidin-1-yl]-2-oxo-ethyl}-5-ethyl-1H-pyrazolo[3,4-c]pyridine-3-carboxylic acid amide] | 0.039
CC1(C)CCC[C@@H](NC(=O)[C@@H]2[C@@H]3C[C@@H]3CN2C(=O)Cn2nc(C(N)=O)c3ccccc32)C1 [Example 88, 1-{2-[(1R,2S,5S)-2-((R)-3,3-Dimethyl-cyclohexylcarbamoyl)-3-aza-bicyclo[3.1.0]hex-3-yl]-2-oxo-ethyl}-1H-indazole-3-carboxylic acid amide] | 0.034
CC1(C)CCC[C@H](NC(=O)[C@@H]2[C@@H]3C[C@@H]3CN2C(=O)Cn2nc(C(N)=O)c3ccccc32)C1 [Example 89, 1-{2-[(1R,2S,5S)-2-((S)-3,3-Dimethyl-cyclohexylcarbamoyl)-3-aza-bicyclo[3.1.0]hex-3-yl]-2-oxo-ethyl}-1H-indazole-3-carboxylic acid amide] | 2.13
CC(=O)c1nn(CC(=O)N2[C@@H]3C[C@@H]3C[C@H]2C(=O)N[C@H]2CCCC(C)(C)C2)c2ccc(OCc3ncccn3)cc12 [Example 97, (1R,3S,5R)-2-{2-[3-Acetyl-5-(pyrimidin-2-ylmethoxy)-indazol-1-yl]-acetyl}-2-aza-bicyclo[3.1.0]hexane-3-carboxylic acid ((S)-3,3-dimethyl-cyclohexyl)-amide] | 0.341
CC(=O)c1nn(CC(=O)N2[C@@H]3C[C@@H]3C[C@H]2C(=O)N[C@@H]2CCCC(C)(C)C2)c2ccc(OCc3ncccn3)cc12 [Example 98, (1R,3S,5R)-2-{2-[3-Acetyl-5-(pyrimidin-2-ylmethoxy)-indazol-1-yl]-acetyl}-2-aza-bicyclo[3.1.0]hexane-3-carboxylic acid ((R)-3,3-dimethyl-cyclohexyl)-amide] | 0.011
